Activity calls are given as the source filed them.
Assays:
[1] = viability of BHK-21 cells – cell-based, secondary screen, cytotoxicity control for flavivirus guanylyltransferase probe project (AID 624078); type: functional
[2] = biological target: NAD-dependent protein deacylase sirtuin-5, mitochondrial (Homo sapiens, UniProt Q9NXA8); test: blockers of sirtuin-5 peptide desuccinylation – biochemical, fluorescence imaging, cherry-pick, set 6, dose response (AID 720597)
Paired box protein Pax-8 = Paired box protein Pax-8 (Homo sapiens, UniProt Q06710); test: PAX8 transcriptional activity inhibition in RMG-I – RMG-I cells, luciferase, cherry-pick, dose response (AID 687027); type: functional, cell-based;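 also: luciferase reporter driven by Pax8 target thyroperoxidase promoter measured by SteadyGlo luminescence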
[3] = OVCAR8 cell viability loss – plate reader, dry powder samples, PAX8 project, dose response (AID 743197); type: functional, cell-based; settings: OVCAR-8
[4] = Late stage counterscreen for inhibitors of Trypanosoma brucei methionyl tRNA synthetase (MetRS): Luminescence-based cell-based high throughput dose response assay to identify compounds that are cytotoxic to Jurkat human T lymphocyte cells.; type: functional
[5] = toxicity toward immortalized ovarian surface epithelium – cell-based, plate reader, dry powder samples, cytotoxicity control for PAX8 inhibitor project, dose response (AID 743045); type: functional
Vero = test: viability loss in Vero cells – cell-based, plate reader, cherry-pick samples, cytotoxicity control, dose response (AID 687020); type: functional; settings: Chlorocebus sabaeus
[6] = OVCAR-3 cell viability loss – plate reader, dry powder samples, PAX8 inhibitor project, dose response (AID 743044); type: functional, cell-based
[7] = HIV-1 AD8 envelope cell-cell fusion blockers – cherry-pick, dose response (AID 652062); type: functional, cell-based;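 also: luciferase signal from cell-cell fusion driven by HIV-1 clade B AD8 Env; potency is for inhibitors of fusion seen as a drop in luminescence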
[8] = non-specific 3'UTR reporter inhibition in Clone20-Shn3RL – cell-based, Renilla luciferase, cherry-picked, counter-screen for Shn3 inhibitor project, dose response (AID 624133); type: functional
[9] = biological target: COUP transcription factor 2 (Homo sapiens, UniProt P24468); test: Luminescence-based cell-based high throughput dose response assay to identify inhibitors of COUP-TFII (NR2F2).; type: functional;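 also: HEK293 cells transiently cotransfected with COUP-TFII expression vector and reporter; luciferase reporter luminescence driven by COUP-TFII from the pX2-168 reporter plasmid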
Galanin receptor type 3 = Galanin receptor type 3 (Homo sapiens, UniProt O60755); test: Fluorescence-based cell-based primary high throughput dose response assay to identify antagonists of the Galanin Receptor 3 (GalR3).; type: functional
[10] = reduction of Shn3 3'UTR-driven luciferase in osteoblasts – cell-based, Clone20 osteoblasts, firefly luciferase, cherry-picked, dose response (AID 624132); type: functional;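 also: firefly luciferase luminescence from reporter carrying the Shn3 3'UTR in osteoblasts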
[11] = loss of viability in HepG2 cells – cell-based, CellTiter-Glo, cherry-picked, cytotoxicity control for Shn3 inhibitor project, dose response (AID 624134); type: functional
[12] = HEK-293T cell viability reduction – luminescence, B-cell screen hits, cytotoxicity control for BCR NF-kB inhibitor project, dose response (AID 489021); type: functional, cell-based;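 also: HEK-293T cells carrying an NF-kB luciferase reporter; cells exposed to compound for about 14 hours before viability readout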
cells [13] = type: functional, cell-based; settings: HEK-CNG
[14] = off-target signal loss in HeLa-CEM21 co-culture – HeLa F-luc CTL cells, cherry-picked, counter-screen for HIV-1 Env fusion inhibitor project, dose response (AID 652040); type: functional, cell-based;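 also: potency for signal decrease marking cytotoxic or nonspecific inhibition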
Protein Tat = Protein Tat (Human immunodeficiency virus type 1 group M subtype B (isolate HXB2)(HIV-1), UniProt P04608); type: functional;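 also: tat binding to TAR RNA read out by fluorescence polarization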
[15] = anti-trypanosomal activity in BESM host cells – imaging, CA-I/72 strain, bovine embryo skeletal muscle, dry powder, dose response (AID 651885); type: functional, cell-based
[16] = IGROV1 cell killing – plate reader, dry powder samples, PAX8 inhibitor project, dose response (AID 743043); type: functional, cell-based; settings: IGROV-1
[17] = general cell-killing toxicity readout – plate reader, dry powder samples, cytotoxicity control for PAX8 inhibitor project, dose response (AID 743021); type: functional, cell-based
Cytochrome P450 2C9 = Cytochrome P450 2C9 (Homo sapiens, UniProt P11712)
cells [18] = test: cells
[19] = biological target: Protein-tyrosine kinase 2-beta (Homo sapiens, UniProt Q14289);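 also: potency of inhibitors of PYK2 kinase phosphorylation of poly-GT substrate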
Cytochrome P450 2D6 = Cytochrome P450 2D6 (Homo sapiens, UniProt P10635);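 also: CYP2D6 member of a cytochrome P450 panel assay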
Major prion protein = Major prion protein (Homo sapiens, UniProt P04156); type: functional, cell-based
[20] = cervical cancer cell viability loss – HeLa, 24 h, plate reader, powder samples, set 3, cytotoxicity control, dose response (AID 651864); type: functional, cell-based
[21] = growth inhibition of yeast DHODH-expressing 3D7 parasites – SYBR Green, dry powder samples, dose response (AID 1159570); type: functional, cell-based;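 also: parasite growth measured after 72 hours of compound exposure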
[22] = growth inhibition of PfATP4-mutant resistant parasites – NITD609-resistant line, SYBR Green, dry powder, dose response (AID 1159571); type: functional, cell-based;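 also: parasites synchronized at ring stage by sorbitol before testing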
[23] = P. falciparum Dd2 growth inhibitors, dose response, SYBR Green, cherry-picked samples (AID 1159567); type: functional, cell-based
[24] = toxicity to human HepG2 hepatoma cells – cell-based, plate reader, dry powder samples, cytotoxicity control, dose response (AID 1159569); type: functional;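 also: inhibitor potency with signal falling toward the positive control level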
[25] = Dd2 malaria parasite growth inhibition potency – SYBR Green, dry powder samples, dose response (AID 1159566); type: functional, cell-based;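 also: potency for growth inhibition with lower SYBR green DNA signal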
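For EC50 in this document: target is galanin receptor GalR3 read with a cAMP biosensor in HEK293 cells.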

With `Cn1c(=O)c2[nH]c(-c3ccc(Cl)cc3)c(O)c2n(C)c1=O` the CC50 [1] was > 100 µM (active).
For `C[C@@H]1CCCCO[C@H](CN(C)Cc2ccc(C(F)(F)F)cc2)[C@@H](C)CN([C@@H](C)CO)C(=O)c2cc(NS(=O)(=O)c3ccccc3)ccc2O1`, the AC50 [2] was 23.5 µM (active), the AC50 (Paired box protein Pax-8) was 4.17 µM (active) and the AC50 [3] was 67.5 µM (active).
With `O=C(CCC(=O)Nc1cccc([N+](=O)[O-])c1)NN=Cc1cccs1` the IC50 [4] was > 83.3 µM (inactive).
For `C[C@@H]1CCCCO[C@H](CN(C)Cc2ccc(C(F)(F)F)cc2)[C@H](C)CN([C@@H](C)CO)C(=O)c2cc(NC(=O)c3ccccc3)ccc2O1`, the AC50 [5] was 42.4 µM (active), the AC50 (Paired box protein Pax-8) was 19.1 µM (active) and the AC50 (Vero) was 28.7 µM (active). The AC50 [6] was 33.2 µM (active) and the AC50 [3] was 17.8 µM (active).
In the case of `Cc1cc(C)c(CN2CCN(C(=O)Cn3cnc4c(NCc5ccccc5)ncnc43)CC2)c(C)c1`, the AC50 [7] is reported as 1.59 µM (active), the AC50 [8] is reported as 0.818 µM (active) and the IC50 [9] is reported as 2.71 µM (active). The IC50 (Galanin receptor type 3) was 0.363 µM (active), the AC50 [10] was 0.417 µM (active) and the AC50 [11] was 0.773 µM (active). The IC50 [12] was > 80 µM (inactive), the EC50 (cells [13]) was > 29.9 µM (inactive) and the AC50 [14] was 27.3 µM (active).
With `COC(=O)C(C)Sc1nnc(Cc2cc(O)nc(O)n2)n1-c1cc(C)ccc1C` (stereo unspecified) the IC50 (Protein Tat) was > 100 µM (active).
With `CC(C)N1C[C@H](C)[C@@H](CN(C)C(=O)OC(C)(C)C)Oc2c(NC(=O)c3ccccc3)cccc2C1=O` the IC50 [15] was > 20 µM (inactive).
With `C[C@@H]1CCCCO[C@H](CN(C)Cc2ccc(Cl)c(Cl)c2)[C@@H](C)CN([C@@H](C)CO)C(=O)c2cc(NS(=O)(=O)c3ccccc3)ccc2O1` the AC50 (Paired box protein Pax-8) was 5 µM (active), the AC50 [6] was 21.2 µM (active) and the AC50 [16] was 44.6 µM (active). For the same compound, the AC50 [17] was 2.38 µM (active).
For `CCc1nc(SCC(=O)NNC(=O)C2CCCCC2)c2ccccc2n1`, the AC50 (Cytochrome P450 2C9) was “inconclusive”, the IC50 (cells [18]) was > 138 µM (inactive) and the IC50 [19] was > 69.5 µM (not active). The AC50 (Cytochrome P450 2D6) was “inconclusive” and the IC50 (Major prion protein) was 1.18 µM (active).
In the case of `CCn1nccc1NCc1ccc(N2CCCC2)cc1`, the AC50 [20] is reported as > 160 µM (inactive).
In the case of `CCCN(C)C[C@@H]1Oc2cc(C#Cc3cccnc3)ccc2S(=O)(=O)N([C@@H](C)CO)C[C@H]1C`, the AC50 [21] is reported as 3.59 µM (active), the AC50 [22] is reported as 2.99 µM (active) and the AC50 [23] is reported as 2.13 µM (active). The AC50 [24] was 79.5 µM (active) and the AC50 [25] was 2.62 µM (active).

Reference: ChEMBL document CHEMBL1201862, “PubChem BioAssay data set” (2004)
